Laboratory results from PubChem BioAssay AID212 (DTP/NCI, 2004).
“And” between values parts separate entries of the source, which are not always exact repeats. Equal values may be shown once. Records with an inconclusive call do not appear.

Tested on: BDF1 mice, colon carcinoma 38 sc, T/C %
Test: NCI In Vivo Anticancer Drug Screen. Data for tumor model Colon Carcinoma 38 (subcutaneous) in B6D2F1 (BDF1) mice
How it was run: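 Transplantable tumor in mice; compound-treated vs vehicle-dosed controls. Measured survival or tumor size; value = T ÷ C.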

[1] = endpoint: median tumor weight (est.), dose: 12.5 mg/kg/injection, schedule: Q07DX002 (ip), vehicle: saline, higher = larger tumour
[2] = endpoint: median tumor weight (est.), dose: 50.0 mg/kg/injection, schedule: Q07DX002 (ip), vehicle: saline, higher = larger tumour
[3] = endpoint: median tumor weight (est.), dose: 6.25 mg/kg/injection, schedule: Q07DX002 (ip), vehicle: saline, higher = larger tumour
[4] = endpoint: median tumor weight (est.), dose: 50.0 mg/kg/injection, schedule: Q07DX002 (ip), vehicle: saline with Tween-80, higher = larger tumour
[5] = endpoint: median tumor weight (est.), dose: 100.0 mg/kg/injection, schedule: Q07DX002 (ip), vehicle: saline with Tween-80, higher = larger tumour

O=C(CN1CCOCC1)Nc1nc(-c2ccc(Cl)cc2)cs1
T/C (endpoint: median tumor weight (est.), dose: 50.0 mg/kg/injection, schedule: Q07DX002 (ip), vehicle: DMSO, higher = larger tumour): 224 % of control
T/C (endpoint: median tumor weight (est.), dose: 100.0 mg/kg/injection, schedule: Q07DX002 (ip), vehicle: DMSO, higher = larger tumour): 292 % of control
T/C (endpoint: median tumor weight (est.), dose: 200.0 mg/kg/injection, schedule: Q07DX002 (ip), vehicle: DMSO, higher = larger tumour): 247 % of control
T/C (endpoint: median tumor weight (est.), dose: 400.0 mg/kg/injection, schedule: Q07DX002 (ip), vehicle: DMSO, higher = larger tumour): 234 % of control

COC1OC(CO)C(O)C(NC(=O)N(C)N=O)C1O (stereo not given)
T/C [1]: 113 % of control
T/C [2]: 95 % of control and 102 % of control
T/C (endpoint: median tumor weight (est.), dose: 800.0 mg/kg/injection, schedule: Q07DX002 (ip), vehicle: saline, higher = larger tumour): 2 % of control and 9 % of control

OCCOCCN1CCN(CCCN2c3ccccc3Sc3ccc(C(F)(F)F)cc32)CC1
T/C [1]: 94 % of control
T/C [2]: 99 % of control

CCN(CC)CCOC(=O)Cc1cccc2c(=O)cc(-c3ccccc3)oc12
T/C (endpoint: median survival time, dose: 133.0 mg/kg/injection, schedule: Q07DX002 (ip), vehicle: saline, higher = longer survival): 110 % of control
T/C (endpoint: median survival time, dose: 200.0 mg/kg/injection, schedule: Q07DX002 (ip), vehicle: saline, higher = longer survival): 313 % of control
T/C (endpoint: median tumor weight (est.), dose: 3.12 mg/kg/injection, schedule: Q07DX002 (iv), vehicle: saline, higher = larger tumour): 92 % of control
T/C [3]: 74 % of control
T/C (endpoint: median tumor weight (est.), dose: 6.25 mg/kg/injection, schedule: Q07DX002 (iv), vehicle: saline, higher = larger tumour): 88 % of control
T/C (endpoint: median tumor weight (est.), dose: 12.5 mg/kg/injection, schedule: Q07DX002 (iv), vehicle: saline, higher = larger tumour): 109 % of control
T/C (endpoint: median tumor weight (est.), dose: 25.0 mg/kg/injection, schedule: Q07DX002 (iv), vehicle: saline, higher = larger tumour): 46 % of control
T/C (endpoint: median tumor weight (est.), dose: 28.0 mg/kg/injection, schedule: Q07DX002 (iv), vehicle: saline, higher = larger tumour): 122 % of control
T/C (endpoint: median tumor weight (est.), dose: 37.5 mg/kg/injection, schedule: Q07DX002 (iv), vehicle: saline, higher = larger tumour): 110 % of control
T/C (endpoint: median tumor weight (est.), dose: 50.0 mg/kg/injection, schedule: Q07DX002 (ip), vehicle: Klucel (hydroxypropylcellulose) (HPC), higher = larger tumour): 61 % of control
T/C [4]: 45 % of control
T/C (endpoint: median tumor weight (est.), dose: 50.0 mg/kg/injection, schedule: Q07DX009 (ip), vehicle: saline, higher = larger tumour): 84 % of control
T/C [5]: 61 % of control
T/C (endpoint: median tumor weight (est.), dose: 100.0 mg/kg/injection, schedule: Q07DX009 (ip), vehicle: saline, higher = larger tumour): 40 % of control
T/C (endpoint: median tumor weight (est.), dose: 112.0 mg/kg/injection, schedule: Q07DX002 (ip), vehicle: saline, higher = larger tumour): 105 % of control
T/C (endpoint: median tumor weight (est.), dose: 150.0 mg/kg/injection, schedule: Q07DX002 (ip), vehicle: saline, higher = larger tumour): 89 % of control

NC(=S)N/N=C/c1ccc(OC(=O)COc2ccccc2)cn1
T/C (endpoint: median tumor weight (est.), dose: 25.0 mg/kg/injection, schedule: Q07DX002 (ip), vehicle: saline with Tween-80, higher = larger tumour): 88 % of control
T/C [4]: 88 % of control
T/C [5]: 55 % of control
T/C (endpoint: median tumor weight (est.), dose: 200.0 mg/kg/injection, schedule: Q07DX002 (ip), vehicle: saline with Tween-80, higher = larger tumour): 72 % of control
T/C (endpoint: median tumor weight (est.), dose: 400.0 mg/kg/injection, schedule: Q07DX002 (ip), vehicle: saline with Tween-80, higher = larger tumour): 57 % of control

COc1cccc2c1C(=O)c1c(O)c3c(c(O)c1C2=O)C[C@@](O)(/C(C)=N/NC(=O)c1ccccc1)C[C@@H]3OC1CC(N)C(O)C(C)O1 (stereo not given in full)
T/C (endpoint: median tumor weight (est.), dose: 2.0 mg/kg/injection, schedule: Q07DX002 (ip), vehicle: water, higher = larger tumour): 100 % of control
T/C (endpoint: median tumor weight (est.), dose: 4.0 mg/kg/injection, schedule: Q07DX002 (ip), vehicle: water, higher = larger tumour): 107 % of control
T/C (endpoint: median tumor weight (est.), dose: 8.0 mg/kg/injection, schedule: Q07DX002 (ip), vehicle: water, higher = larger tumour): 102 % of control
T/C (endpoint: median tumor weight (est.), dose: 16.0 mg/kg/injection, schedule: Q07DX002 (ip), vehicle: water, higher = larger tumour): 16 % of control

CC(C)NC(=O)OCc1c(COC(=O)NC(C)C)c(-c2ccc(Cl)c(Cl)c2)n2c1CCC2
T/C (endpoint: median tumor weight (est.), dose: 12.5 mg/kg/injection, schedule: Q07DX002 (ip), vehicle: distilled water + Tween-80, higher = larger tumour): 82 % of control and 99 % of control
T/C (endpoint: median tumor weight (est.), dose: 25.0 mg/kg/injection, schedule: Q07DX002 (ip), vehicle: distilled water + Tween-80, higher = larger tumour): 114 % of control and 94 % of control and 107 % of control
T/C (endpoint: median tumor weight (est.), dose: 50.0 mg/kg/injection, schedule: Q07DX002 (ip), vehicle: distilled water + Tween-80, higher = larger tumour): 53 % of control and 67 % of control

CN(C)N=Nc1ccccc1
T/C (endpoint: median tumor weight (est.), dose: 12.5 mg/kg/injection, schedule: Q07DX002 (ip), vehicle: Klucel (hydroxypropylcellulose) (HPC), higher = larger tumour): 80 % of control and 86 % of control
T/C (endpoint: median tumor weight (est.), dose: 25.0 mg/kg/injection, schedule: Q07DX002 (ip), vehicle: Klucel (hydroxypropylcellulose) (HPC), higher = larger tumour): 42 % of control and 49 % of control
T/C (endpoint: median tumor weight (est.), dose: 100.0 mg/kg/injection, schedule: Q07DX002 (ip), vehicle: Klucel (hydroxypropylcellulose) (HPC), higher = larger tumour): 24 % of control and 27 % of control

O=C1C=C(C2OC(CO)C(O)C2O)C(=O)N1 (stereo not given)
T/C (endpoint: median tumor weight (est.), dose: 1.56 mg/kg/injection, schedule: Q07DX002 (ip), vehicle: saline, higher = larger tumour): 66 % of control
T/C (endpoint: median tumor weight (est.), dose: 3.12 mg/kg/injection, schedule: Q07DX002 (ip), vehicle: saline, higher = larger tumour): 56 % of control
T/C [3]: 70 % of control
T/C [1]: 113 % of control
T/C (endpoint: median tumor weight (est.), dose: 25.0 mg/kg/injection, schedule: Q07DX002 (ip), vehicle: saline, higher = larger tumour): 83 % of control
